Laboratory results: US11603373B2, “TDO2 and IDO1 inhibitors” (Genentech, Inc., priority 2017, dated 2023)

Columns and labels:
[1] = target: T1, IDO1 (A172+IFNg cells, high IDO expressing cells) (Homo sapiens, UniProt P14902); assay: NFK GreenScreen cell assay, inhibition of IDO in A172+IFNg cells; assay type: cell-based; settings: read-out: IDO cell Fluor EC50
T1 construct: A172+IFNg cells (high IDO expressing cells); endogenous in cells; host or cells: A172 cells induced with 100 ng/ml IFNγ
Text: (§1) Cells are counted on a Vi-Cell (Beckman Coulter). […] The final DMSO concentration is 0.5%.

[2] = target: T2, TDO2 (SW48 cells, high TDO expressing cells) (Homo sapiens, UniProt P48775); assay: NFK GreenScreen cell assay, inhibition of TDO in SW48 cells; assay type: cell-based; settings: read-out: TDO2 Cell Fluor EC50
T2 construct: SW48 cells (high TDO expressing cells); endogenous in cells; host or cells: SW48 cells
Text: as §1

T2 sequence (P48775 whole entry): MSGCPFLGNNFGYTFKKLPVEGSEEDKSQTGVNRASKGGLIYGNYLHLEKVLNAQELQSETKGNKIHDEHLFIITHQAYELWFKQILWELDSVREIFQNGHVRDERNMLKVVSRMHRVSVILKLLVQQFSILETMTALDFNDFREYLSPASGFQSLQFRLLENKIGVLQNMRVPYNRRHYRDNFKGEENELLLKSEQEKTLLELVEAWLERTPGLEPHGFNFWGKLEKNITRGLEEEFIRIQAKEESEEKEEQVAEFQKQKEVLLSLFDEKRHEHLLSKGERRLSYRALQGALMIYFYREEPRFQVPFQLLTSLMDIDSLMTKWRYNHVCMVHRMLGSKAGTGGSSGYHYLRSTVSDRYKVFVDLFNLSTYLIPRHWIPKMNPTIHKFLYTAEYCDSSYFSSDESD
T1 sequence (P14902 whole entry): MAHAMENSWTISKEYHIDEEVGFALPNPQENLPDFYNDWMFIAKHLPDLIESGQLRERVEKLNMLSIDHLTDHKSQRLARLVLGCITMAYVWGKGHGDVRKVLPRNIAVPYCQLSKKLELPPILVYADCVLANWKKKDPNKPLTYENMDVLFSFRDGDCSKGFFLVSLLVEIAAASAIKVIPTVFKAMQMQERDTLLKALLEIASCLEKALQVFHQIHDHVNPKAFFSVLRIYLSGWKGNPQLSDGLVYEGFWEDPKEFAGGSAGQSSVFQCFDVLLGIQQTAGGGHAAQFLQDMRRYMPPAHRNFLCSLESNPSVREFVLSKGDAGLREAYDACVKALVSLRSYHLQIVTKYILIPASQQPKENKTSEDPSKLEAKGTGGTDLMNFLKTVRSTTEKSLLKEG

EC50 [1] [µM]	EC50 [2] [µM]	Compound
8.5	17	CC(C)(C)OC(=O)N1CC2CCC(C1)C21C[C@@H]([C@@H]2c3ccccc3-c3cncn32)[C@@H]1O (stereo partly drawn) [Example 22e, tert-butyl (2′S,3′S)-2′-hydroxy-3′-((R)-5H-imidazo[5,1-a]isoindol-5-yl)-3-azaspiro[bicyclo[3.2.1]octane-8,1′-cyclobutane]-3-carboxylate]
0.092	1.4	CC(C)(C)OC(=O)N1CC2CCC(C1)C21C[C@H]([C@H]2c3ccccc3-c3cncn32)[C@H]1O (stereo partly drawn) [Example 22f, tert-butyl (2′R,3′R)-2′-hydroxy-3′-((S)-5H-imidazo[5,1-a]isoindol-5-yl)-3-azaspiro[bicyclo[3.2.1]octane-8,1′-cyclobutane]-3-carboxylate]
0.041	0.16	CC(C)(C)OC(=O)N1CC2CCC(C1)C21C[C@H]([C@@H]2c3ccccc3-c3cncn32)[C@H]1O (stereo partly drawn) [Example 22g, tert-butyl (2′R,3′R)-2′-hydroxy-3′-((R)-5H-imidazo[5,1-a]isoindol-5-yl)-3-azaspiro[bicyclo[3.2.1]octane-8,1-cyclobutane]-3-carboxylate]
2.8	4	CC(C)(C)OC(=O)N1CC2CCC(C1)C21C[C@@H]([C@H]2c3ccccc3-c3cncn32)[C@@H]1O (stereo partly drawn) [Example 22h, tert-butyl (2′S,3′S)-2′-hydroxy-3′-((S)-5H-imidazo[5,1-a]isoindol-5-yl)-3-azaspiro[bicyclo[3.2.1]octane-8,1′-cyclobutane]-3-carboxylate]
0.15	0.33	O=S(=O)(C1COC1)N1CCC2(CC1)CC(C1c3ccccc3-c3cncn31)C2O (centres unmarked) [Example 23a, 2-(5H-imidazo[1,5-b]isoindol-5-yl)-7-(oxetan-3-ylsulfonyl)-7-azaspiro[3.5]nonan-3-ol]
0.05	0.09	O=S(=O)(C1COC1)N1CCC2(CC1)C[C@@H]([C@H]1c3ccccc3-c3cncn31)[C@H]2O [Example 23c, (2S,3R)-2-[(5S)-5H-imidazo[1,5-b]isoindol-5-yl]-7-(oxetan-3-ylsulfonyl)-7-azaspiro[3.5]nonan-3-ol]
1.8	1.1	CC(C)(C)OC(=O)N[C@H]1CC[C@]2(CC1)C[C@H]([C@H]1c3ccccc3-c3cncn31)[C@@H]2O [Example 24g, tert-butyl ((1S,2R,4r,7S)-1-hydroxy-2-((S)-5H-imidazo[5,1-a]isoindol-5-yl)spiro[3.5]nonan-7-yl)carbamate]
5	14	CC(C)(C)OC(=O)N[C@H]1CC[C@@]2(CC1)C[C@H](C1c3ccccc3-c3cncn31)[C@H]2O (stereo partly drawn) [Example 24k, tert-butyl ((1S,2S,4s,7R)-1-hydroxy-2-((S)-5H-imidazo[5,1-a]isoindol-5-yl)spiro[3.5]nonan-7-yl)carbamate]

Second part, the compound before the results:

Compound	EC50 [1] [µM]	EC50 [2] [µM]
CS(=O)(=O)N1CC2(CC(C3c4ccccc4-c4cncn43)C2O)C1 (centres unmarked) [compound 5, 6-(5H-imidazo[1,5-b]isoindol-5-yl)-2-methylsulfonyl-2-azaspiro[3.3]heptan-7-ol]	0.46	0.23
Cn1cc(S(=O)(=O)N2CCC3(CC2)CC(C2c4ccccc4-c4cncn42)C3O)cn1 (centres unmarked) [compound 26, 2-(5H-imidazo[1,5-b]isoindol-5-yl)-7-(1-methylpyrazol-4-yl)sulfonyl-7-azaspiro[3.5]nonan-3-ol]	0.11	0.22
Cc1nn(C)c(C)c1S(=O)(=O)N1CCC2(CC1)CC(C1c3ccccc3-c3cncn31)C2O (centres unmarked) [compound 27, 2-(5H-imidazo[1,5-b]isoindol-5-yl)-7-(1,3,5-trimethylpyrazol-4-yl)sulfonyl-7-azaspiro[3.5]nonan-3-ol]	0.03	0.14
CC(C)S(=O)(=O)N1CCC2(CC1)C[C@@H]([C@H]1c3ccccc3-c3cncn31)[C@H]2O [compound 29, 2-(5H-imidazo[1,5-b]isoindol-5-yl)-7-isopropylsulfonyl-7-azaspiro[3.5]nonan-3-ol]	0.059	0.24
Cc1nc(S(=O)(=O)N2CCC3(CC2)C[C@@H]([C@H]2c4ccccc4-c4cncn42)[C@H]3O)cn1C [compound 30]	0.32	0.49
Cc1noc(C)c1S(=O)(=O)N1CCC2(CC1)C[C@@H]([C@H]1c3ccccc3-c3cncn31)[C@H]2O [compound 31]	0.15	2.2
Cc1ccncc1S(=O)(=O)N1CCC2(CC1)C[C@@H]([C@H]1c3ccccc3-c3cncn31)[C@H]2O [compound 32, (1R,2S)-2-((S)-5H-imidazo[5,1-a]isoindol-5-yl)-7-((4-methylpyridin-3-yl)sulfonyl)-7-azaspiro[3.5]nonan-1-ol]	0.049	0.3
O=C(CCc1cccnc1)N1CCC2(CC1)CC(C1c3ccccc3-c3cncn31)C2O (centres unmarked) [compound 33, 1-[3-hydroxy-2-(5H-imidazo[1,5-b]isoindol-5-yl)-7-azaspiro[3.5]nonan-7-yl]-3-(3-pyridyl)propan-1-one]	0.49	0.84
CC(=O)N(C)c1ccc(S(=O)(=O)N2CCC3(CC2)C[C@@H]([C@H]2c4ccccc4-c4cncn42)[C@H]3O)cc1 [compound 34, N-[4-[[3-hydroxy-2-(5H-imidazo[1,5-b]isoindol-5-yl)-7-azaspiro[3.5]nonan-7-yl]sulfonyl]phenyl]-N-methyl-acetamide]	0.032	0.48
CC(=O)N1CCC(S(=O)(=O)N2CCC3(CC2)CC(C2c4ccccc4-c4cncn42)C3O)CC1 (centres unmarked) [compound 35, 1-[4-[[3-hydroxy-2-(5H-imidazo[1,5-b]isoindol-5-yl)-7-azaspiro[3.5]nonan-7-yl]sulfonyl]-1-piperidyl]ethanone]	0.14	0.46
O=S(=O)(C1CCC1)N1CCC2(CC1)C[C@@H]([C@H]1c3ccccc3-c3cncn31)[C@H]2O [compound 36, 7-cyclobutylsulfonyl-2-(5H-imidazo[1,5-b]isoindol-5-yl)-7-azaspiro[3.5]nonan-3-ol]	0.035	0.15
CN1C(=O)Cc2cc(S(=O)(=O)N3CCC4(CC3)CC(C3c5ccccc5-c5cncn53)C4O)ccc21 (centres unmarked) [compound 37, 5-[[3-hydroxy-2-(5H-imidazo[1,5-b]isoindol-5-yl)-7-azaspiro[3.5]nonan-7-yl]sulfonyl]-1-methyl-indolin-2-one]	0.23	1.1
O=C(c1cnn2c1OCCC2)N1CCC2(CC1)CC(C1c3ccccc3-c3cncn31)C2O (centres unmarked) [compound 38, 6,7-dihydro-5H-pyrazolo[5,1-b][1,3]oxazin-3-yl-[3-hydroxy-2-(5H-imidazo[1,5-b]isoindol-5-yl)-7-azaspiro[3.5]nonan-7-yl]methanone]	0.63	2.3
O=C(CN1CCCCC1=O)N1CCC2(CC1)CC(C1c3ccccc3-c3cncn31)C2O (centres unmarked) [compound 39, 1-[2-[3-hydroxy-2-(5H-imidazo[1,5-b]isoindol-5-yl)-7-azaspiro[3.5]nonan-7-yl]-2-oxo-ethyl]piperidin-2-one]	3.3	3.9
CN1CCC(C(=O)N2CCC3(CC2)CC(C2c4ccccc4-c4cncn42)C3O)CC1=O (centres unmarked) [compound 40, 4-[3-hydroxy-2-(5H-imidazo[1,5-b]isoindol-5-yl)-7-azaspiro[3.5]nonane-7-carbonyl]-1-methyl-piperidin-2-one]	7	9.2
CC(C(=O)N1CCC2(CC1)C[C@@H]([C@H]1c3ccccc3-c3cncn31)[C@H]2O)n1cncn1 (some centres unmarked) [compound 41, 1-[3-hydroxy-2-(5H-imidazo[1,5-b]isoindol-5-yl)-7-azaspiro[3.5]nonan-7-yl]-2-(1,2,4-triazol-1-yl)propan-1-one]	1.5	3.4
CC(NC=O)C(=O)N1CCC2(CC1)CC(C1c3ccccc3-c3cncn31)C2O (centres unmarked) [compound 42, N-[2-[3-hydroxy-2-(5H-imidazo[1,5-b]isoindol-5-yl)-7-azaspiro[3.5]nonan-7-yl]-1-methyl-2-oxo-ethyl]formamide]	1.1	4.1
O=C(C1CC1)N1CCC2(CC1)CC(C1c3ccccc3-c3cncn31)C2O (centres unmarked) [compound 43, cyclopropyl-[3-hydroxy-2-(5H-imidazo[1,5-b]isoindol-5-yl)-7-azaspiro[3.5]nonan-7-yl]methanone]	0.36	0.85
Cn1ccc(S(=O)(=O)N2CCC3(CC2)CC(C2c4ccccc4-c4cncn42)C3O)n1 (centres unmarked) [compound 44, 2-(5H-imidazo[1,5-b]isoindol-5-yl)-7-(1-methylpyrazol-3-yl)sulfonyl-7-azaspiro[3.5]nonan-3-ol]	0.082	0.28
O=C(C1CCOCC1)N1CCC2(CC1)C[C@@H]([C@H]1c3ccccc3-c3cncn31)[C@H]2O [compound 45, [3-hydroxy-2-(5H-imidazo[1,5-b]isoindol-5-yl)-7-azaspiro[3.5]nonan-7-yl]-tetrahydropyran-4-yl-methanone]	2.4	2.1
O=C(C1CCOC1)N1CCC2(CC1)C[C@@H]([C@H]1c3ccccc3-c3cncn31)[C@H]2O (some centres unmarked) [compound 46, [3-hydroxy-2-(5H-imidazo[1,5-b]isoindol-5-yl)-7-azaspiro[3.5]nonan-7-yl]-tetrahydrofuran-3-yl-methanone]	2	2.4
COCCC(=O)N1CCC2(CC1)C[C@@H]([C@H]1c3ccccc3-c3cncn31)[C@H]2O [compound 47, 1-[3-hydroxy-2-(5H-imidazo[1,5-b]isoindol-5-yl)-7-azaspiro[3.5]nonan-7-yl]-3-methoxy-propan-1-one]	0.85	0.85
O=C(C1CCC1)N1CCC2(CC1)C[C@@H]([C@H]1c3ccccc3-c3cncn31)[C@H]2O [compound 48, cyclobutyl-[3-hydroxy-2-(5H-imidazo[1,5-b]isoindol-5-yl)-7-azaspiro[3.5]nonan-7-yl]methanone]	0.35	0.73
